This is an account of results in US20200247815A1, “PYRAZOLYL-CONTAINING TRICYCLIC DERIVATIVE, PREPARATION METHOD THEREFOR AND USE THEREOF” (Jiangsu Hansoh Pharmaceutical Group Co., Ltd., priority 2017, published 2020).

One data set addresses T1, ERK-2 kinase (Homo sapiens, UniProt P28482).
T1 construct: purchased Invitrogen PV3313
Briefly: Inhibition of ERK-2 kinase activity (LANCE Ultra TR-FRET). In kind it is biochemical. The conditions noted are these: ERK-2 enzyme 0.08 nM, ATP 38.15 μM. The essentials: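 Recombinant ERK-2 (0.08 nM) with ULight-MBP peptide (0.5 μM) and ATP (38.15 μM) in Hepes pH 7.4 buffer, compound 100 nM to 0.005 nM final, 4% DMSO, 60 min at room temperature. Eu-anti-p-MBP TR-FRET (665/615 nm) read after EDTA stop; % inhibition versus DMSO and no-enzyme controls fitted 4-parameter for Abs_IC50.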

The nature of data set [1]: Pharmacokinetics assay in mice (oral, plasma). In kind it is in vivo, Balb/c Mouse. The conditions noted are these: for Exposure in mouse plasma: dose of 50 mg/kg, oral; for Cmax / MRT / Tmax / half-life / AUC(0-t): mouse, male Balb/c mice, PO 50 mg/kg, plasma; for AUC(0-t): read-out: AUC0-24. How it is done: Balb/c Mouse was used as the test animal. The pharmacokinetic behavior of compounds of Example 1, 2 and 7 administrated orally was studied in mice (plasma).
170 g of PEG400 and 20 g of Solutol HS-15 were added to a 250 mL glass flask, and then 10 mL of NMP was added. The solution was mixed well by ultrasound for 10 minutes to obtain a clear solution.
11.2 mg of the compound of Example 1, 10.8 mg of the compound of Example 2 and 9.8 mg of the compound of Example 7 were weighted to a 4 mL glass flasks respectively, […], 2.160 mL and […] of the above solution were treated by ultrasound for 10 minutes to obtain a colorless clear solution with a concentration of 5 mg/mL.
After fasting overnight, the male Balb/c mice were administrated with the compounds (PO), the dose was 50 mg/kg, and the administration volume was 10 mL/kg.
Blood was taken before administration and at 0.25, 0.5, 1, 2, 4, 6, 8 and 24 hours after administration. The blood samples were stored in EDTA-2K tubes, and centrifuged for 6 minutes to separate the blood plasma. The plasma samples were stored at −80° C.

Data set [2] in a line: Solubility (statement, no method). In kind it is physicochemical.
The next data set has as its target T2, hERG potassium channel (Homo sapiens, UniProt Q12809).
T2 construct: expressed in transfected cells; host or cells: CHO-hERG cells
Briefly: hERG potassium channel inhibition activity test (Qpatch, CHO-hERG cells). In kind it is cell-based. How it is done: 4.1.1 CHO-hERG cells were cultured in a 175 cm2 culture flask. After the cell density reached 60˜80%, the culture solution was removed. The cells were washed with 7 mL of PBS once, and dissociated with 3 mL of Detachin.
4.1.2 After completion of dissociation, the cells were neutralized with 7 mL of culture solution. The solution was centrifuged, and the supernate was removed. The cells were resuspended in 5 mL of culture solution. The cell indensity is ensured as […].
Single cell sealing impedance and formation of whole-cell mode were automatically performed by Qpatch instrument. After obtaining the whole-cell recording mode, the cell was clamped at −80 mV. The cell first underwent pre-voltage of −50 mV for 50 msec, then underwent depolarization stimulation at +40 mV for 5 sec, and then underwent repolarization at −50 mV for 5 sec. and then the voltage returned to −80 mV. The cell underwent the stimulation at the voltage every 15 sec, and the data were recorded for 2 min, then extracellular fluid was administrated, and then the data were recorded for 5 min. Then, the administration process begun. The concentration of the test compound started from the lowest concentration, each test concentration was administrated for 2.5 min. At least three cells were tested for each concentration.
4.4.1 20 mM mother liquor of the compound was diluted with extracellular fluid, 5 uL of 20 mM mother liquor of the compound was added with 2495 uL of extracellular fluid to obtain a concentration of 40 uM (500-fold dilution). The solution was subjected to a 3-fold serial dilution with extracellular fluid containing 0.2% DMSO to obtain a required final concentration.
This concentration of DMSO had no effect on hERG potassium channel.
The experimental data was analyzed by XLFit software.
For orientation: The hERG channel carries a current that helps repolarise heart muscle cells.

As a reminder, the Cmax is the maximum level reached in the sampled fluid or tissue. The term MRT denotes the average time that molecules of a dose stay in the body. As usually defined, the Tmax is the time from dosing to the highest level. What is called half-life is how long it takes for the measured level to halve.

T1 sequence (P28482 whole entry): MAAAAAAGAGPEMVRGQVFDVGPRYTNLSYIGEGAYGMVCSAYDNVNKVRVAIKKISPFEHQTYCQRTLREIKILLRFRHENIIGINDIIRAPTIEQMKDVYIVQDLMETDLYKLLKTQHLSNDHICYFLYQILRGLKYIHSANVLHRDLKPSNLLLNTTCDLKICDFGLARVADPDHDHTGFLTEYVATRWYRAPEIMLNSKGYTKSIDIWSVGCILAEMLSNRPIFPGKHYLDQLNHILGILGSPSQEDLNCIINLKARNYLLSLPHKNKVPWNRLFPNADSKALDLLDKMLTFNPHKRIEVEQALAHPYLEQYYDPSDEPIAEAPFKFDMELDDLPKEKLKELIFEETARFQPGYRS
T2 sequence (Q12809 whole entry): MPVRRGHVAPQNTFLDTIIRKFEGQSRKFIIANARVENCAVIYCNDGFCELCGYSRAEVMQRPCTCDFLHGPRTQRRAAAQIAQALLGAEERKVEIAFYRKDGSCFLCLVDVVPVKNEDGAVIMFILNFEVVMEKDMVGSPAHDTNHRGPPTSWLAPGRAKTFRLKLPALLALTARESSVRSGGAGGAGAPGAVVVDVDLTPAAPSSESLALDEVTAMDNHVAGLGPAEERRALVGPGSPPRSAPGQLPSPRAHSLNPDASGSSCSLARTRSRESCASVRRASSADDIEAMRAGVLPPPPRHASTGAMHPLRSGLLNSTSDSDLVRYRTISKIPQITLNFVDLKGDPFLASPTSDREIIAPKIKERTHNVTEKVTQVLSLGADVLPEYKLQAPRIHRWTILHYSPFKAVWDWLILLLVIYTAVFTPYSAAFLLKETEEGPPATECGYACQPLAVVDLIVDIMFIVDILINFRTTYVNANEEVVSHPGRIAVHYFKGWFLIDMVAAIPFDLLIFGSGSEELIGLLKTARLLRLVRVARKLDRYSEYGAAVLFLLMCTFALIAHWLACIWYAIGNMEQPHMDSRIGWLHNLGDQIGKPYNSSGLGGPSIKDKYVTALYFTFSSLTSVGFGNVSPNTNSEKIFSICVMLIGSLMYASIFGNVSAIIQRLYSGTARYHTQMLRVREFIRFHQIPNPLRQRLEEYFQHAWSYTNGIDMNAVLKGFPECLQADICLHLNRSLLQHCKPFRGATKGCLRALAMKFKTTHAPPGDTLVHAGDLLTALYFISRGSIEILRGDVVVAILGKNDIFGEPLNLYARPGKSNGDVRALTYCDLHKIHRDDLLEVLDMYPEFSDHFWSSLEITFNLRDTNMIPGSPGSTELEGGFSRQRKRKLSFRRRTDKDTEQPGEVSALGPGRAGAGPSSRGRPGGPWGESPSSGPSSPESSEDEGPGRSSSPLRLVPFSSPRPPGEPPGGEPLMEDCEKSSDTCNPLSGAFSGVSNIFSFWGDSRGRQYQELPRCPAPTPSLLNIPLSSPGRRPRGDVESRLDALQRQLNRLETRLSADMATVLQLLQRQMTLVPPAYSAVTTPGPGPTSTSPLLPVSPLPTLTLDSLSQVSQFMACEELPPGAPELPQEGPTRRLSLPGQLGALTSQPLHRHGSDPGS

As to `C[C@@H](NC(=O)c1cc2cc3c(-c4ccncc4)n[nH]c3cc2[nH]1)c1ccccc1` [Example 1, (R)—N-(1-phenylethyl)-3-(pyridin-4-yl)-1,7-dihydropyrrolo[3,2-f]indazole-6-carboxamide], on ERK-2 kinase, the IC50 was 0.17 nM. Also, in data set [1], the “Exposure in mouse plasma” value is “good exposure”, the concentration peaked (Cmax) at 1310 ng/mL, the mean residence time (MRT) is 8.99 h and the time to peak (Tmax) is 0.5 h. Moreover, in data set [1], the half-life was 6.59 h and the AUC(0-t) is 14700 ng·h/mL. Moreover, the “Solubility compared with ERK compounds of the prior art” value in data set [2] is listed as “higher solubility”.
On to `C[C@@H](NC(=O)c1nc2cc3c(-c4ccncc4)n[nH]c3cc2[nH]1)c1ccccc1` [Example 2, (R)—N-(1-phenylethyl)-3-(pyridin-4-yl)-1,7-dihydroimidazo[4,5-f]indazole-6-carboxamide], for which, at ERK-2 kinase, the IC50 was found to be 0.19 nM. In data set [1], the “Exposure in mouse plasma” value is “good exposure”, the Cmax was 15900 ng/mL, the MRT came out at 2.44 h and the Tmax worked out at 2 h. Further, in data set [1], the half-life was 0.82 h and the AUC(0-t) was found to be 50400 ng·h/mL. On hERG potassium channel, the “Inhibition effect on cardiac hERG potassium channel” value is reported as “no inhibition effect”. Moreover, the IC50 at hERG potassium channel (CHO-hERG cells, highest test concentration 40 uM, read-out: hERG (inhibition effect on hERG current)) is more than 40000 nM. In data set [2], the “Solubility compared with ERK compounds of the prior art” value is listed as “higher solubility”.
